In US20260285903A1, “SYNTHESIZED BIOLOGICALLY ACTIVE COMPOUNDS AND METHODS OF MAKING AND USING” (Georgia State University Research Foundation, Inc., priority 2023, published 2026):

How the values were obtained:
[1] = Incubation with mouse intestinal microsomes (HPLC); format: in vitro ADME; conditions: incubation for 30 minutes
Text: The biopharmaceutical properties of the synthesized M13 (5-glutathione-6-shogaol) were characterized.

[2] = system: NF-κB signaling pathway; experiment: NF-κB-dependent luciferase activity in NF-κB/293/GFP-Luc cells treated with TNF-α; format: cell-based; conditions: for RLU (% with TNFα): MLY compounds; for RLU (% with TNFα) / reduction of NF-κB activation: TNF-α 10 ng/ml, 18 hours; for Activity compared with M13: Table 2B; for reduction of NF-κB activation / RLU (% with TNF-α), range: 20 µM; for IC50: TNF-α stimulated, FIG. 9, read-out: dose to reduce the NF-κB activation by 50%; for RLU (% with TNF-α), range: Table 2B bins, 1080 min
Procedure: First, the anti-inflammatory activity of MLY compounds on the NF-κB signaling pathway was examined using the NF-xB/293/GFP-LucTnl cell line (System Biosciences). This cell line is specifically designed for use in quantitatively monitoring (by luciferase intensity) transcriptional activation related to the NF-κB signal transduction pathway in vitro. Treatment of NF-κB/293/GFP-Luc™ cells with 10 ng/ml TNF-α for 18 hours induced strong activation of the NF-κB signal transduction pathway (FIGS. 8A and 8B). […] MLY2 and MLY8 induced a strongest 90% reduction of NF-κB activation the anti-inflammatory effect of MLY 2 and 8 was dose-related (FIG. 9). The dose to reduce the NF-κB activation by 50% was […] for M13, 5 μM for MLY2 and 11 μM for MLY8 (FIG. 9).

SMILES: CCCCC/C=C/C(=O)CCc1ccc(O)c(OC)c1 [6-shogaol, reference compound]
- relative content retained of the input [1]: 61%

SMILES: CCCCCC(CC(=O)CCc1ccc(O)c(OC)c1)SC[C@H](NC(=O)[C@@H](N)CCC(=O)O)C(=O)N[C@@H](C)C(=O)O (stereo partly drawn) [MLY-1, Glu(alpha)-Cys(6-shogaol)-Ala]
- RLU (% with TNFα) [2]: 30.3 ± 11.78%
- Activity compared with M13 [2]: >>M13 (15~35%)

SMILES: CCCCCC(CC(=O)CCc1ccc(O)c(OC)c1)SC[C@H](NC(=O)[C@@H](N)CCC(=O)O)C(=O)N[C@@H](CC(C)C)C(=O)O (stereo partly drawn) [MLY-2, Glu(alpha)-Cys(6-shogaol)-Leu]
- RLU (% with TNFα) [2]: 0.78 ± 0.54%
- reduction of NF-κB activation [2]: 90%
- IC50 [2]: 5 µM
- Activity compared with M13 [2]: >>>>M13 (0~5%)

SMILES: CCCCCC(CC(=O)CCc1ccc(O)c(OC)c1)SC[C@H](NC(=O)[C@@H](N)CCC(=O)O)C(=O)N1CCC[C@H]1C(=O)O (stereo partly drawn) [MLY-3, Glu(alpha)-Cys(6-shogaol)-Pro]
- RLU (% with TNFα) [2]: 6.54 ± 8.56%
- Activity compared with M13 [2]: >M13 (35%~70%)

SMILES: CCCCCC(CC(=O)CCc1ccc(O)c(OC)c1)SC[C@H](NC(=O)[C@@H](N)CCC(=O)O)C(=O)N[C@@H](Cc1c[nH]c2ccccc12)C(=O)O (stereo partly drawn) [MLY-4, Glu(alpha)-Cys(6-shogaol)-Trp]
- RLU (% with TNFα) [2]: 80.65 ± 2.22%
- Activity compared with M13 [2]: = M13 (70%~85%)

SMILES: CCCCCC(CC(=O)CCc1ccc(O)c(OC)c1)SC[C@H](NC(=O)[C@@H](N)CCC(=O)O)C(=O)N[C@@H](Cc1ccc(O)cc1)C(=O)O (stereo partly drawn) [MLY-5, Glu(alpha)-Cys(6-shogaol)-Tyr]
- RLU (% with TNFα) [2]: 67.18 ± 3.27%
- Activity compared with M13 [2]: >M13 (35%~70%)

SMILES: CCCCCC(CC(=O)CCc1ccc(O)c(OC)c1)SC[C@H](NC(=O)[C@@H](N)CC(=O)O)C(=O)N[C@@H](Cc1ccccc1)C(=O)O (stereo partly drawn) [MLY-6, Asp(alpha)-Cys(6-shogaol)-Phe]
- RLU (% with TNFα) [2]: 50.7 ± 1.38%
- Activity compared with M13 [2]: >M13 (35%~70%)

SMILES: CCCCCC(CC(=O)CCc1ccc(O)c(OC)c1)SC[C@H](NC(=O)[C@@H](N)CC(=O)O)C(=O)N[C@@H](CC(C)C)C(=O)O (stereo partly drawn) [MLY-7, Asp(alpha)-Cys(6-shogaol)-Leu]
- RLU (% with TNFα) [2]: 38.6 ± 3.96%
- Activity compared with M13 [2]: >M13 (35%~70%)

SMILES: CCCCCC(CC(=O)CCc1ccc(O)c(OC)c1)SC[C@H](NC(=O)[C@@H](N)CC(=O)O)C(=O)N[C@@H](CCSC)C(=O)O (stereo partly drawn) [MLY-8, Asp(alpha)-Cys(6-shogaol)-Met]
- RLU (% with TNFα) [2]: 8.04 ± 4.06%
- reduction of NF-κB activation [2]: 90%
- IC50 [2]: 11 µM
- Activity compared with M13 [2]: >>>M13 (5%~15%)

SMILES: CCCCCC(CC(=O)CCc1ccc(O)c(OC)c1)SC[C@H](NC(=O)[C@@H](N)CC(=O)O)C(=O)N1CCC[C@H]1C(=O)O (stereo partly drawn) [MLY-9, Asp(alpha)-Cys(6-shogaol)-Pro]
- RLU (% with TNFα) [2]: 92.85 ± 2.15%
- Activity compared with M13 [2]: <M13 (>90%)
- RLU (% with TNF-α), range [2]: >90%

SMILES: CCCCCC(CC(=O)CCc1ccc(O)c(OC)c1)SC[C@H](NC(=O)[C@@H](N)CC(=O)O)C(=O)N[C@H](C(=O)O)C(C)C (stereo partly drawn) [MLY-10, Asp(alpha)-Cys(6-shogaol)-Val]
- RLU (% with TNFα) [2]: 66.68 ± 11.06%
- Activity compared with M13 [2]: >M13 (35%~70%)

SMILES: CCCCCC(CC(=O)CCc1ccc(O)c(OC)c1)SC[C@H](NC(=O)[C@@H](N)CC(=O)O)C(=O)N[C@@H](Cc1c[nH]c2ccccc12)C(=O)O (stereo partly drawn) [MLY-11, Asp(alpha)-Cys(6-shogaol)-Trp]
- RLU (% with TNFα) [2]: 24.75 ± 0.79%
- Activity compared with M13 [2]: >>M13 (15~35%)

SMILES: CCCCCC(CC(=O)CCc1ccc(O)c(OC)c1)SC[C@H](NC(=O)[C@@H](N)CC(=O)O)C(=O)N[C@@H](Cc1ccc(O)cc1)C(=O)O (stereo partly drawn) [MLY-12, Asp(alpha)-Cys(6-shogaol)-Tyr]
- RLU (% with TNFα) [2]: 47.43 ± 5.5%
- Activity compared with M13 [2]: >M13 (35%~70%)

SMILES: CCCCCC(CC(=O)CCc1ccc(O)c(OC)c1)SC[C@H](NC(=O)[C@@H](N)CCC(=O)O)C(=O)N[C@@H](CCSC)C(=O)O (stereo partly drawn) [MLY-13, Glu(alpha)-Cys(6-shogaol)-Met]
- RLU (% with TNFα) [2]: 60.22 ± 13.55%
- Activity compared with M13 [2]: >M13 (35%~70%)

SMILES: CCCCCC(CC(=O)CCc1ccc(O)c(OC)c1)SC[C@H](NC(=O)[C@@H](N)CC(=O)O)C(=O)N[C@H](C(=O)O)[C@@H](C)CC (stereo partly drawn) [MLY-14, Asp(alpha)-Cys(6-shogaol)-Ile]
- RLU (% with TNFα) [2]: 80.67 ± 11.28%
- Activity compared with M13 [2]: = M13 (70%~85%)

SMILES: CCCCCC(CC(=O)CCc1ccc(O)c(OC)c1)SC[C@H](NC(=O)[C@@H](N)CCC(=O)O)C(=O)N[C@@H](Cc1ccccc1)C(=O)O (stereo partly drawn) [MLY-15, Glu(alpha)-Cys(6-shogaol)-Phe]
- RLU (% with TNFα) [2]: 47.98 ± 9.35%
- Activity compared with M13 [2]: >M13 (35%~70%)

SMILES: CCCCCC(CC(=O)CCc1ccc(O)c(OC)c1)SC[C@H](NC(=O)[C@@H](N)CCC(=O)O)C(=O)N[C@H](C(=O)O)[C@@H](C)CC (stereo partly drawn) [MLY-16, Glu(alpha)-Cys(6-shogaol)-Ile]
- RLU (% with TNFα) [2]: 68.19 ± 4.46%
- Activity compared with M13 [2]: >M13 (35%~70%)

SMILES: CCCCCC(CC(=O)CCc1ccc(O)c(OC)c1)SC[C@H](NC(=O)[C@@H](N)CCC(=O)O)C(=O)N[C@H](C(=O)O)C(C)C (stereo partly drawn) [MLY-17, Glu(alpha)-Cys(6-shogaol)-Val]
- RLU (% with TNFα) [2]: 45.13 ±1.96%
- Activity compared with M13 [2]: >M13 (35%~70%)

SMILES: CCCCCC(CC(=O)CCc1ccc(O)c(OC)c1)SC[C@H](NC(=O)[C@@H](N)CC(=O)O)C(=O)NCC(=O)O (stereo partly drawn) [MLY-18, Asp(alpha)-Cys(6-shogaol)-Gly]
- RLU (% with TNFα) [2]: 112.31 ± 7.28%
- Activity compared with M13 [2]: <M13 (>90%)
- RLU (% with TNF-α), range [2]: >90%

SMILES: CCCCCC(CC(=O)CCc1ccc(O)c(OC)c1)SC[C@H](NC(=O)[C@@H](N)CC(=O)O)C(=O)N[C@@H](C)C(=O)O (stereo partly drawn) [MLY-19, Asp(alpha)-Cys(6-shogaol)-Ala]
- RLU (% with TNFα) [2]: 67.04 ± 11.04%
- Activity compared with M13 [2]: >M13 (35%~70%)
